Experimental data as given in patent US20210128537A1, “T-TYPE CALCIUM CHANNEL MODULATORS AND METHODS OF USE THEREOF” (Praxis Precision Medicines, inc., priority 2016, published 2021).

Columns and labels:
[1] = test system: post-SE rats; test: Morris water maze in post-SE rats; type: in vivo, rat; conditions: Z944 60 mg/kg/day, levetiracetam 200 mg/kg/day for 4 weeks
Procedure: (§1) All behavioural tests were performed in a light-controlled (˜110 lux), closed, quiet and clean room in the. Behavioural testing was performed in a blinded manner to the treatment groups. All of the behavioural tests were video recorded for future analysis. OF, EPM and MWM sessions were filmed using a digital camera mounted above the centre of the arena, which was connected to a computer for the recording and objective analysis of digitized behavioural tests (EthoVision 3.0.15, Noldus). The first behavioural test was performed one week after the last EEG recording. The different behavioural tests/session were performed 24 hours apart from each other. All tests were scored by an experienced observer who was blind to the experimental conditions of the animals.
The MWM is a circular black PVC plastic pool of 160 cm diameter which is filled to a depth of either 2.5 cm above a 10 cm diameter hidden platform water at 25±1° C. The platform is located in the centre of the South-West quadrant during the first 3 sessions and changed to North-East quadrant for the remaining sessions. Visual cues are placed in the main 4 cardinal points, consisting of large black and white symbols that serve as orientation landmarks for the rats. […] The latency to find the escape platform, speed and strategic path used by the animal to locate the platform are recorded. […]

[2] = biological target: hCaV3.2 (Homo sapiens, UniProt O95180); test: Inactivated channel state FLIPR assay, concentration-dependent inhibition of hCaV3.2; type: cell-based; conditions: logistic function fit
[3] = test system: T-type calcium channels (CaV3.1, CaV3.2, CaV3.3) mRNA; test: Quantitative PCR of T-type Ca2+ channel expression in the hippocampus of post-SE rats; type: in vivo, rat; conditions: 9 weeks after treatment ended
Procedure: RNA was extracted using the RNeasy Mini Kit (QIAGEN), DNA elimination columns were used to remove any genomic DNA contamination in accordance with the manufacturer's protocol. RNA concentration and purity was determined using spectrophotometric readings with the NanoDrop 3000 spectrophotometer (NanoDrop Technologies). 1 μg RNA was reverse transcribed to cDNA using the Omniscript RT Kit (QIAGEN) following the manufacturer's protocol. T-type Ca^2+ channel expression was assessed using quantitative polymerase chain reaction (qPCR). Each 10 μl reaction volume consisted in 25 ng of cDNA, 5 μl of TaqMan Universal PCR Master Mix 2× and custom designed TaqMan using catalogued 20× Taqman gene expression assays for CaV3.1 (Assay ID Rn00581051_m1, Applied Biosystems), CaV3.2 (Assay ID Rn01460348_m1, Applied Biosystems), CaV3.3 (Assay ID Rn01505208_m1, Applied Biosystems). Relative mRNA expression of the CaV3.1, CaV3.2 and CaV3.3 were compared to the geometric average of the mRNA levels of the housekeeping genes Rplp1 (Rn03467157_gH), Rpl13a (Rn00821946_g1) and Ywhaz (Assay ID: Rn00755072_m1). Analysis was performed using the ΔΔCT method. The average of the relative expression levels was compared between the different treatment groups.

[4] = test system: Naïve wistar rats; test: Drug tolerability study, seven-day osmotic pump; type: in vivo, rat
Procedure: Pumps were filled with either Z944 to deliver a daily dose of 60 mg/kg, levetiracetam to deliver a daily dose of 200 mg/kg or vehicle. For the drug tolerability study, osmotic pumps continuously either Z944, levetiracetam or vehicle for 7 days and for the post-SE study osmotic pumps delivered continuously the different treatments for 28 days.
The neurological side effects of the prolonged administration of Z944 and levetiracetam were assessed over one-week. Naïve wistar rats aged 11 weeks were implanted with a seven-day osmotic pump with Z944 (60 mg/kg/day, n=6), levetiracetam (200 mg/kg/day, n=5) and vehicle (n=6). The animals were evaluated twice per day, morning and afternoon, for side effects from the day of pump implantation to 8 days after.

[5] = test system: GAERS nRT neuron; test: Thalamic slice current-clamp recordings, burst firing in nRT neurons; type: cell-based, rat; conditions: 1 mM Z944; for voltage response to depolarizing current, low threshold spiking: in 600 nM TTX
[6] = test system: post-SE rats; test: Forced swim test in post-SE rats; type: in vivo, rat; conditions: Z944 60 mg/kg/day for 4 weeks, p<0.05
Procedure: as §1
The FST was performed in a clear Plexiglas cylinder (50 cm long×30 cm diameter) filled with water (25±1° C.). The FST was divided into a 15-min training session and a 5-min test session performed 24 h later, as previously described. Immobility time and swimming time were analysed.

Chain of hCaV3.2 (O95180 whole entry): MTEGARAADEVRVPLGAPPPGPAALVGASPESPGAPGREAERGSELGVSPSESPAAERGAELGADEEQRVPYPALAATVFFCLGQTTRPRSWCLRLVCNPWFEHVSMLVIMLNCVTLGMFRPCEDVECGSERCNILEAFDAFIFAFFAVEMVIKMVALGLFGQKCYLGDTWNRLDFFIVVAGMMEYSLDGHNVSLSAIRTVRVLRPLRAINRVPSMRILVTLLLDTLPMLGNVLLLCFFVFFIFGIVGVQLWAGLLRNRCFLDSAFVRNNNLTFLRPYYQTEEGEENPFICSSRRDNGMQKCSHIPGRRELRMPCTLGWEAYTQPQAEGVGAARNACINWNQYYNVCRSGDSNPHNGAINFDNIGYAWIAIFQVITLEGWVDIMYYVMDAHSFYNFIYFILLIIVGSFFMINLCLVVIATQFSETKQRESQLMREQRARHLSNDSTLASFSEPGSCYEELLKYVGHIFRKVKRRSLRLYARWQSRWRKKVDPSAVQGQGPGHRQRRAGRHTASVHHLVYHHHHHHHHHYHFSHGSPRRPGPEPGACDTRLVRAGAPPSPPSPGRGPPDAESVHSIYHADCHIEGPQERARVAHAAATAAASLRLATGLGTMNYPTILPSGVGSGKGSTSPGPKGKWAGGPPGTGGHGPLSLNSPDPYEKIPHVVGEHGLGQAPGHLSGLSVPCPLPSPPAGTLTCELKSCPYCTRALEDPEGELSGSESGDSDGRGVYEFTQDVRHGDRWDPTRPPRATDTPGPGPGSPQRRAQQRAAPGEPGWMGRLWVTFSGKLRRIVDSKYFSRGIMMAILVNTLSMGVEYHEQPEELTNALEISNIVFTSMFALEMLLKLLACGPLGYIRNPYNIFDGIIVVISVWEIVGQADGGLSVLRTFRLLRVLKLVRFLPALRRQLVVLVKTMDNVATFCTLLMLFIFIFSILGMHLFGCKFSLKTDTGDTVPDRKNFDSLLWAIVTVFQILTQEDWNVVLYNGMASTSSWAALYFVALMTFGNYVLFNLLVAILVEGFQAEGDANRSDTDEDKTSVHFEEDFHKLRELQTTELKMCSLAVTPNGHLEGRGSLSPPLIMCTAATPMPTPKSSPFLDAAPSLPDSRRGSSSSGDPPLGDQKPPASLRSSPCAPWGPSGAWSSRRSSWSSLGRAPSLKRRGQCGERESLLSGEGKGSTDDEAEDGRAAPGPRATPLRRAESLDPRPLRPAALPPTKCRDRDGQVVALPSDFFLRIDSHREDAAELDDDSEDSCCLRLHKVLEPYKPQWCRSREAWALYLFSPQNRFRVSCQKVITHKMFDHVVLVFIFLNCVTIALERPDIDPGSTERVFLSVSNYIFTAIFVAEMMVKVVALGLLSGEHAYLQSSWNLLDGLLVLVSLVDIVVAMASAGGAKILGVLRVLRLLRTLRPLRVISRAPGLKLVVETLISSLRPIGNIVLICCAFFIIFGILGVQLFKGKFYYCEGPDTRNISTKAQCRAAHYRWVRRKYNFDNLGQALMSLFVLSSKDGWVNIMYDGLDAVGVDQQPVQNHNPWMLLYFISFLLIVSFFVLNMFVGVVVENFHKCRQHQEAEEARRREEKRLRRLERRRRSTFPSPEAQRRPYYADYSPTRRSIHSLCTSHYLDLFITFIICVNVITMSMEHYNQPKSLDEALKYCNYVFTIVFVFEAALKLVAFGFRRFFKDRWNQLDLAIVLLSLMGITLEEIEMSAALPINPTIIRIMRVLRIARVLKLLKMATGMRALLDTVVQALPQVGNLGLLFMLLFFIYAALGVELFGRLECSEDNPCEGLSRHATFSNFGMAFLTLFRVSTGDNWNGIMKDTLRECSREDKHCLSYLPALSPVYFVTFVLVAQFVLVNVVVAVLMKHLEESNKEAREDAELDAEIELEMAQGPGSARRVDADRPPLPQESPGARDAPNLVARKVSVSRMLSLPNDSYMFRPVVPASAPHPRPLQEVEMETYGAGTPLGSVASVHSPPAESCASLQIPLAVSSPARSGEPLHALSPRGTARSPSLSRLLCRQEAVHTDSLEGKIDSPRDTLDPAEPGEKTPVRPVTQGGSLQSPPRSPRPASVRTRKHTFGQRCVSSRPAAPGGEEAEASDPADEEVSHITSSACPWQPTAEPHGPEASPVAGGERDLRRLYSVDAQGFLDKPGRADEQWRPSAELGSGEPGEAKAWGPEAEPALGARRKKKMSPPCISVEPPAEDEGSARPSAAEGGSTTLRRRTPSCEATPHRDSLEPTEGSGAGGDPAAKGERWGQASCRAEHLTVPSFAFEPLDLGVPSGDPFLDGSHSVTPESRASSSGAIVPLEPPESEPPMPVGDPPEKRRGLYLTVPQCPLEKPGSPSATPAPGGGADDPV

Compound: CC(C)(C)NC(=O)CN1CCC(CNC(=O)c2cc(F)cc(Cl)c2)CC1 [Z944]
- time to find the hidden platform (cognition) [1]: Improves Cognition
- slope of the concentration-inhibition curve [2]: 1.5
- mRNA expression of T-type calcium channels in the hippocampus [3]: Reduced mRNA Expression
- neurological side effects in comparison to vehicle ([4]; 60 mg/kg/day osmotic pump, day 2 to day 5): transient and minimal side effects
- neurological side effects compared to levetiracetam treated animals ([4]; Z944 60 mg/kg/day vs levetiracetam 200 mg/kg/day, day 2 and 3, p<0.05): significantly reduced neurological side effects
- voltage response to depolarizing current, burst firing ([5]; +80 pA (threshold for burst firing in control)): subthreshold for firing
- voltage response to depolarizing current, low threshold spiking ([5]; +100 pA): subthreshold for low-threshold spiking
- voltage response to depolarizing current, burst firing ([5]; +120 pA (suprathreshold for burst firing in control)): threshold for tonic firing
- voltage response to depolarizing current, low threshold spiking ([5]; +190 pA (suprathreshold in control)): still subthreshold
- forced swim test immobility time [6]: vehicle had an increased immobility time when compared to both sham groups and post-SE+Z944 group
